Measured values taken from US20140099262A1, “ISOTOPICALLY LABELED CDP-CHOLINE AND USES THEREOF” (BRAIN WATCH LTD., priority 2011, published 2014).
Marks after values point to notes of the source that are not given here.

What was measured:
[1] = intravenous administration; cited from earlier work
[2] = 31P T1 (spin-lattice relaxation) measurement of CDP-Choline phosphates by inversion recovery, in water and in plasma; format: physicochemical; conditions: 31P-NMR, 11.8T, confidence interval in brackets
Protocol: […] CDP-Choline were dissolved in 700 μL distilled water containing 10% deuterated water (85.7 mM solution) and stored in a 5 mm NMR tube in the freezer until assay.
Two units of expired plasma (about 250 cc per unit) from blood type AB and O were obtained frozen from the blood bank section at Hadassah Medical Center. Plasma was defrosted in the refrigerator overnight. 565 μl of plasma solution was mixed with 75 IA distilled water and transferred to a 5 mm NMR tube. The solution was kept on ice until NMR analysis the same day. 60 μl CDP-Choline was added to the solution and ^31P-NMR was recorded 37 s from the time CDP-Choline mixed with the plasma solutions in the NMR tube. The Ionic strength of the solution was 315.04 mM and the concentration of CDP-Choline 15.4 mM.
Spectra were obtained on an 11.8T high-resolution spectrometer (Varian, Palo Alto, Calif., USA) with a 5 mm direct multi-nuclei probe.
T1 measurements were performed for CDP-Choline in water and in plasma with the standard inversion recovery pulse sequence. The data were fitted to the standard inversion recovery equation using the MATLAB software (The MathWorks Inc., Natick, Mass., USA).

[3] = T1 of carbon-13 nuclei in the choline moiety of CDP-choline; format: physicochemical; conditions: 11.8 T, non-deuterated positions
From the text: Furthermore, it was unexpected to find that the relaxation time of the phosphorus nuclei is longer in plasma as compared to water.

Compound: C[N+](C)(C)CCOP(=O)(O)OP(=O)(O)OC[C@H]1O[C@@H](n2ccc(N)nc2=O)[C@H](O)[C@@H]1O [CDP-Choline, 5′-O-[hydroxy({hydroxy[2-(trimethylammonio)ethoxy]phosphoryl}oxy)phosphoryl]cytidine]
- LD0 of CDP-Choline compared to choline [1]: about 40 fold
- T1 of phosphate P1 ([2]; H2O, 85.7 mM): 1.2 (0.9-1.5) s
- T1 of phosphate P2 ([2]; H2O, 85.7 mM): 1.4 (1.3-1.6) s
- T1 of phosphate P1 ([2]; plasma, 15.4 mM): 2.0 (1.9-2.0)* s
- T1 of phosphate P2 ([2]; plasma, 15.4 mM): 2.6 (2.4-2.8) s
- T1 of the carbon-13 nuclei in the choline moiety [3]: 2 to 3 s
